Patent US6900221B1, “Stable polymorph on N-(3-ethynylphenyl)-6, 7-bis (2methoxyethoxy)-4-quinazolinamine hydrochloride, methods of production, and pharmaceutical uses thereof” (OSI Pharmaceuticals, Inc., priority 1999, dated 2005)

Assays:
[1] = Phase I clinical studies, safety; assay type: in vivo, human
Protocol: […]. […] In a daily dosing regimen study the dose limiting toxicity at 200 mg/day was diarrhea. This observed side effect was effectively controlled at the 150 mg daily dose level using Loperamide (Imodium®). […] The rash has a unique histopathology of PMN infiltration with mild epidermal hyperproliferation. It is not consistent with drug hypersensitivity nor does it appear to be a “named” dermatological condition. This rash has not been a significant impediment to patients staying on the Phase II trials. […]. […] For example, in one Phase I study of 28 patients, 8 patients remain alive over a year after inception of treatment and 12 patients remained alive from 9-22 months.

[2] = test system: cancer patients with multiple tumor types; test: Phase I clinical studies, preliminary evidence of effectiveness in cancer patients; assay type: in vivo, human; details: one Phase I study of 28 patients
[3] = test system: refractory ovarian cancer; test: Phase II single agent study in refractory ovarian cancer; assay type: in vivo, human; details: 150 mg daily, preliminary results
Source text: Evidence of anti-tumor activity can also be seen in the patients with ovarian cancer in the on-going Phase II study.

[4] = Thermodynamic stability of the polymorphic forms; assay type: physicochemical; details: hydrochloride polymorph forms compared
[5] = test system: advanced head and neck cancer; test: Phase II single agent study in advanced head and neck cancer; details: 150 mg daily
[6] = test system: refractory non-small cell lung cancer (NSCLC); details: 150 mg daily, first 19 evaluable patients
Source text: Qualification criteria for the open label, single agent study required the patients to have failed platinum-based chemotherapy and to have tumors that are histopathologically confirmed to be EGFR positive. The primary endpoint in the study is response rate with stable disease and time-to-progression amongst the secondary end-points.

[7] = Solubility in aqueous compositions; assay type: physicochemical; details: compared with the hydrochloride compound
[8] = advanced head and neck cancer, preliminary results

## C#Cc1cccc(Nc2ncnc3cc(OCCOC)c(OCCOC)cc23)c1.Cl [polymorph B, N-(3-ethynylphenyl)-6,7-bis(2-methoxyethoxy)-4-quinazolinamine hydrochloride]
[1]; 150 mg daily
  most significant toxicity: monomorphic acneiform rash
[1]; Phase I, volunteers and cancer patients, dose of 150 mg/day
  severity of adverse events: no adverse events that were greater than moderate in severity
[1]; daily dosing regimen study, 200 mg/day
  dose limiting toxicity: diarrhea
[1]; total of 290 patients in Phase I and ongoing Phase II studies
  safety profile: well tolerated safety profile
[2]
  patients alive over a year after inception of treatment: 8 patients
  patients remained alive from 9-22 months: 12 patients
[3]
  patients with objective partial responses: 2 patients
  patients with stabilization of disease status: 4 patients
[4]
  thermodynamic stability: thermodynamically most stable
[5]; [8]
  patients with objective partial responses: 3 patients
  patients with stabilization of disease status: 9 patients
[5]; first group of patients in the head and neck cancer study
  patients reporting acneiform rash: approximately 70%
[6]
  patients with objective partial responses: 5 patients
  patients with stabilization of disease status: 4 patients

## C#Cc1cccc(Nc2ncnc3cc(OCCOC)c(OCCOC)cc23)c1 [mesylate compounds, N-(3-ethynylphenyl)-6,7-bis(2-methoxyethoxy)-4-quinazolinamine]
[7]
  solubility in aqueous compositions: more soluble

## C#Cc1cccc(Nc2ncnc3cc(OCCOC)c(OCCOC)cc23)c1.Cl [polymorph A, N-(3-ethynylphenyl)-6,7-bis(2-methoxyethoxy)-4-quinazolinamine hydrochloride]
[4]
  thermodynamic stability: thermodynamically less stable

## C#Cc1cccc(Nc2ncnc3cc(OCCOC)c(OCCOC)cc23)c1.Cl [hydrochloride compound, [6,7-bis(2-methoxyethoxy)-quinazolin-4-yl]-(3-ethynylphenyl)amine hydrochloride, reference compound]
[4]
  thermodynamic stability: partially reduced stability
